Test results from patent publication US20180273528A1 (LES LABORATOIRES SERVIER, priority 2015, published 2018).

Key:
[1] = target: T1, His-TEV-DYRK1A Kinase domain (aa127-485) (Homo sapiens, UniProt Q13627); assay: Kinase ADP assay (ADP Hunter), DYRK1A kinase domain; assay type: biochemical; conditions: 20 μM ATP
T1 construct: His-TEV-DYRK1A Kinase domain (aa127-485); His tag (N); TEV protease cleavage site (N)
In short: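 Readout is ADP Hunter fluorescence at 590 nm, developed 20 min at 30 °C after the kinase step. That step ran 10 min at 30 °C in Hepes pH 7.4 (10 mM MgCl2, 1 mM EGTA, 0.02% Tween20) containing 20 μM ATP, 40 μM peptide and 20 nM enzyme plus compound.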

DYRK1A [2] = target: T2, DYRK1A (Homo sapiens, UniProt Q13627); assay: Kinase TR-FRET assay, DYRK1A; assay type: biochemical; set-up: full-length, wild-type human DYRK1A (NM_001396) with an HA tag; expressed in transfected cells; host or cells: human U2-OS osteosarcoma cells, transient transfection of a pcDNA3.1 plasmid; conditions: full-length human kinase, 10 μM ATP
In short: (§1)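 Compounds tested at 0.1 nM to 30 μM in reaction buffer; reaction stopped with 10 mM EDTA. Phosphorylated MBP detected with 1 nM Europium-labelled anti-phospho-Thr232 antibody by TR-FRET.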

CDK9 = target: T3, CDK9 (Homo sapiens, UniProt P50750); assay: Kinase TR-FRET assay, CDK9; assay type: biochemical; conditions: full-length human kinase, 10 μM ATP
T3 construct: full-length human kinases from Carna Biosciences; purchased Carna Biosciences 04-110
In short: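 Full-length human CDK9 (0.9 ng/μl) incubated 100 min at room temperature with 10 μM ATP, 100 nM ULight-MBP peptide and compound (0.1 nM–30 μM) in 50 mM HEPES pH 7.4, 1 mM EGTA, 10 mM MgCl2, 2 mM DTT, 0.01% Tween20. Stopped with 10 mM EDTA, then 1 nM Eu-anti-phospho-Thr232 MBP antibody added for 1 h. TR-FRET read at 665/620 nm with 340 nm excitation.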

DYRK1A [3] = target: T2, DYRK1A; assay: Pharmacodynamic assay in RS4;11 tumor xenografts for inhibition of DYRK1A autophosphorylation; assay type: in vivo; set-up: tumors were excised and proteins were extracted in tissue lysis buffer; from tissue; host or cells: RS4;11 human leukemia xenograft tumors grown in female SCID mice; conditions: mouse, single oral administration, 2 h, RS4;11 tumors in SCID mice, read-out: phospho-Ser520-DYRK1A (% control at 2 h)
Method: For pharmacodynamics studies of inhibition of DYRK1A autophosphorylation, female SCID mice were injected subcutaneously with RS4; 11 human acute lymphoblastic leukemia cells. When tumors reached a size of 200-300 mm^3, mice were randomized into homogeneous groups of 3 and given a single oral administration of the compounds of the invention at doses of up to 100 mg/kg. […] The relative levels of phospho-Ser520-DYRK1A were assayed using western blotting. For this, lysates were diluted into Laemmli sample buffer (Bio-Rad) containing 5% v/v β-mercaptoethanol, heated for 5 min at 95° C., and resolved on Tris-glycine gels or NuPage Bis-Tris gels (Novex; Invitrogen). Biotinylated molecular weight standards (Cell Signaling Technology) were included in all gels. Proteins were transferred to nitrocellulose membranes (Hybond, ECL; Amersham), which were blocked in Tris-buffered saline/0.1% tween 20 (TBST) containing 5% milk, and probed at 4° C. overnight with anti-phospho-Ser520-DYRK1A antibody (Eurogentec SE6974-75; 0.23 μg/ml in 5% BSA) or anti DYRK1A antibody (Abnova H00001859; 0.5 μg/ml in 5% milk). Peroxidase-conjugated secondary antibodies were diluted into 5% milk and applied to membranes for 1 h at 20° C. Chemiluminescence detection was performed using the ECL plus western blotting detection kit (Amersham) and was recorded on ECL plus hyperfilm (Amersham). Blots were scanned using the Bio-Rad GS-800 calibrated densitometer and quantitative analysis of western blots was performed using TotalLab software (Amersham). The percentage inhibition of phospho-Ser520-DYRK1A as compared to the control tumors was calculated using the ratio between phospho-Ser520-DYRK1A and total DYRK1A signals at each dose.

CLK1 = target: T4, CLK1 (Homo sapiens, UniProt P49759); assay: Kinase TR-FRET assay, CLK1; assay type: biochemical; conditions: full-length human kinase, 10 μM ATP
T4 construct: full-length human kinases from Carna Biosciences; purchased Carna Biosciences 04-126
In short: as §1

T4 sequence (P49759 1-526 isoform P49759-3): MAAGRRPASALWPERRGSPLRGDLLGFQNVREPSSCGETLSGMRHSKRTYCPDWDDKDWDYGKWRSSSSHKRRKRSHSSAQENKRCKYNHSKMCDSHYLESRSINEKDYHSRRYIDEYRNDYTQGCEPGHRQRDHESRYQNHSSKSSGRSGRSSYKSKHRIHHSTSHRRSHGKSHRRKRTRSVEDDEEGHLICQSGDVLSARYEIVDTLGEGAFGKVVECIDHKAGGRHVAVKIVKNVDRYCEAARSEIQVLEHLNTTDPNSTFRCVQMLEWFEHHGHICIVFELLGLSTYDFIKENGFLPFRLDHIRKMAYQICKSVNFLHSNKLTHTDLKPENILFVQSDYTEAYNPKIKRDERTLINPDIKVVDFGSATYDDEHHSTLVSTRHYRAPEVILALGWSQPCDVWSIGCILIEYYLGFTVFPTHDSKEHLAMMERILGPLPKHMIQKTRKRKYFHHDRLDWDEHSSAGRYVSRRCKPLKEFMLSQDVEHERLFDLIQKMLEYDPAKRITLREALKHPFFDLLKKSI
T3 sequence (P50750 whole entry): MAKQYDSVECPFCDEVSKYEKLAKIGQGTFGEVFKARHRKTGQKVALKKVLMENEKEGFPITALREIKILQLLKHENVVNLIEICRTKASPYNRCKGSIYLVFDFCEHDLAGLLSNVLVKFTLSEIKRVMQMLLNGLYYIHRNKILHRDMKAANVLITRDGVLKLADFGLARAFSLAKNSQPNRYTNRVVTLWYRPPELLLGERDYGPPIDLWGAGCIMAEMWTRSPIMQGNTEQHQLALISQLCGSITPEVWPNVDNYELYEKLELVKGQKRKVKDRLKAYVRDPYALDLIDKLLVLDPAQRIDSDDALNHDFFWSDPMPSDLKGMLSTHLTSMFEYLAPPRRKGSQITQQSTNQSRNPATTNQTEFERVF
T3 sequence (O60563 whole entry partner): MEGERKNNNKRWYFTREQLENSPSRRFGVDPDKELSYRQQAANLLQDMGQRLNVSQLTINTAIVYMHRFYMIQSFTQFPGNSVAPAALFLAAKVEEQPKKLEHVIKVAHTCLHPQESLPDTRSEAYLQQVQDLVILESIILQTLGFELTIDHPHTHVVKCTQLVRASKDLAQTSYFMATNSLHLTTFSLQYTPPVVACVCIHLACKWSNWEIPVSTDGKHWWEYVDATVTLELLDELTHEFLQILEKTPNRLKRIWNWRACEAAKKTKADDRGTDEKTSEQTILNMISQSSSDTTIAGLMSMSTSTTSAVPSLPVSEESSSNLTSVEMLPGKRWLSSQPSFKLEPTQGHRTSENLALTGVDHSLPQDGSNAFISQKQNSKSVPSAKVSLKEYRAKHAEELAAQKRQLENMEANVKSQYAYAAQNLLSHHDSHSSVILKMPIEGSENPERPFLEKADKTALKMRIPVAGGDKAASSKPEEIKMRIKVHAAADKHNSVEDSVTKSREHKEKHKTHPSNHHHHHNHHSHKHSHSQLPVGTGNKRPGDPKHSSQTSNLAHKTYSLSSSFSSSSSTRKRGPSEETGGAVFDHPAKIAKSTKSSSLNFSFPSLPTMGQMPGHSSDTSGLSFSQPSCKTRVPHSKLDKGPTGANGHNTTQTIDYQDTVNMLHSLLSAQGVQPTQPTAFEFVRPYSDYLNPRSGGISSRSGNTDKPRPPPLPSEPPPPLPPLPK

Structure (SMILES) | IC50 [1] | IC50 (DYRK1A [2]) | IC50 (CDK9) | response vs control in vivo at 9 mg/kg (DYRK1A [3]; dose 9 mg/kg) | IC50 (CLK1) | response vs control in vivo at 3 mg/kg (DYRK1A [3])
Cc1nc2ccc(-c3cc(N)nc(N)c3)nc2n1C[C@@H](C)Oc1ccccc1 (single isomer, unassigned) [Example 106] | 0.012 µM | 0.008 µM | > 3 µM | 46% | 0.019 µM | –
Cc1nc2ccc(-c3cc(N)nc(N)c3)nc2n1C1CC1 [Example 9, 4-(3-cyclopropyl-2-methyl-3H-imidazo[4,5-b]pyridin-5-yl)pyridine-2,6-diamine] | 0.007 µM | 0.011 µM | 2.15 µM | – | 0.021 µM | 44%
Cc1nc2ccc(-c3cc(N)nc(N)c3)nc2n1Cc1ccoc1 [Example 42, 4-[3-(furan-3-ylmethyl)-2-methyl-3H-imidazo[4,5-b]pyridin-5-yl]pyridine-2,6-diamine] | 0.008 µM | 0.012 µM | 2.94 µM | – | 0.053 µM | 35%
Cc1nc2ccc(-c3cc(N)nc(N)c3)nc2n1CCCC(F)(F)F [Example 71, 4-[2-methyl-3-(4,4,4-trifluorobutyl)-3H-imidazo[4,5-b]pyridin-5-yl]pyridine-2,6-diamine] | 0.006 µM | 0.006 µM | 1.41 µM | – | 0.016 µM | 33%

Further compounds by falling IC50 [1], results first:

IC50 [1] | IC50 (DYRK1A [2]) | IC50 (CDK9) | response vs control in vivo at 9 mg/kg (DYRK1A [3]; dose 9 mg/kg) | IC50 (CLK1) | response vs control in vivo at 3 mg/kg (DYRK1A [3]) | Structure (SMILES)
0.007 µM | 0.004 µM | 3.39 µM | – | 0.023 µM | 28% | CCn1c(C)nc2ccc(-c3cc(N)nc(N)c3)nc21 [Example 154, 4-(3-ethyl-2-methyl-3H-imidazo[4,5-b]pyridin-5-yl)pyridine-2,6-diamine]
0.006 µM | 0.003 µM | 1.26 µM | – | 0.016 µM | 25% | Cc1nc2ccc(-c3cc(N)nc(N)c3)nc2n1C1CC(F)(F)C1 [Example 101, 4-[3-(3,3-difluorocyclobutyl)-2-methyl-3H-imidazo[4,5-b]pyridin-5-yl]pyridine-2,6-diamine]
0.006 µM | 0.006 µM | 0.666 µM | – | 0.015 µM | 41% | Cc1nc2ccc(-c3cc(N)nc(N)c3)nc2n1C1CC(F)C1 (centres unmarked) [Example 103, 4-[3-(3-fluorocyclobutyl)-2-methyl-3H-imidazo[4,5-b]pyridin-5-yl]pyridine-2,6-diamine]
